Assay results from patent US20090298938A1, “USE OF SEMI SYNTHETIC ANALOGUES OF BOSWELLIC ACIDS FOR ANTICANCER ACTIVITY” (COUNCIL OF SCIENTIFIC & INDUSTRIAL RESEARCH, priority 2008, published 2009).

Columns and labels:
Assay type in all cases: cell-based, human
[1] = test system: Colo-205 colon cancer cells; assay: In vitro cytotoxicity, SRB assay, Colo-205
Method: (§1) The semi-synthetic analogues of formula 1 have been subjected to in vitro cytotoxicity screening in a panel of human cancer cell lines using following methodology. The human cancer cell lines were obtained either from National Center for Cell Science, Pune or National Cancer Institute, Fredrick, Md., USA. Cells were grown in tissue culture flasks in complete growth medium (RPMI-1640 medium with 2 mM glutamine, 100 µg/ml streptomycin, pH 7.4, sterilized by filtration and supplemented with 10% sterilized fetal calf serum and 100 units/ml penicillin before use) at 37° C. in an atmosphere of 5% CO2 and 90% relative humidity in a carbon dioxide incubator. The cells at sub-confluent stage were harvested from flask by treatment with trypsin (0.05% trypsin in PBS containing 0.02% EDTA) and suspended in complete growth medium. Cells with cell viability of more than 97% by trypan blue exclusion technique were used for determination of cytotoxicity.
(§2) Test material were dissolved in DMSO (dimethyl sulphoxide) to obtain a stock solution of 2×10^−2M. The stock solution was serially diluted with complete growth medium containing 50 μg/ml of gentamycin to obtain working test solutions of required concentrations.
(§3) The suspension of human cancer cell lines of required cell density in complete growth medium was prepared and cell suspension (100 μl/well) of each cell line was added to wells of 96-well tissue culture plate. Suitable blanks and controls were also included. The plates were incubated for 24 hrs in a carbon dioxide incubator.
(§4) The working test solutions of different concentrations (100 μl/well) were added after 24 hr incubation. The plates were further incubated for 48-hrs after addition of the test materials. After incubation, the cell growth was stopped by gently layering of 50 μl of TCA (50% trichloroacetic acid) on top of the medium in all the wells. The plates were incubated at 4° C. for one hour to fix the cells attached to bottom of the wells. Liquids of all the wells were gently pipetted out and discarded. The plates were washed five times with distilled water to remove TCA, growth medium, low molecular weight metabolites, serum proteins etc. The plates were air dried.
(§5) Cell growth was measured by staining with sulforhodamine B dye (SRB). The SRB solution (100 μl, 0.4% in 1% acetic acid) was added to each well and the plates were incubated at room temperature for 30 minutes. The unbound SRB was quickly removed by washing the wells five times with 1% acetic acid solution and plates were air dried. Tris buffer (100 μl, 0.01 M, pH 10.4) was added to all the wells and plates were gently stirred for 5 minutes on a mechanical stirrer. The optical density was recorded on ELISA reader at 540 nm.
(§6) Cell growth in the presence of test material was calculated in terms of the percentage of growth inhibition. The in vitro cytotoxicity of four natural boswellic acid i.e. boswellic acid, acetyl boswellic acid, 11-keto-boswellic acids, acetyl-11-ketio-boswellic acid on various cancer cell lines has been examined and typical results are given in the succeeding table. Based on their cytotoxicity profile the analogues of formula 1 were studied for inhibition of cell proliferation by using MTT assay method. […] The induction of apoptosis in HL-60 cells was also validated by generation of DNA fragmentation.
(§7) Assay of cytotoxicity potential of test materials is a primary standard procedure for seeking lead molecules for development of anti-cancer leads. Human cancer cells after trypsinization into single cell suspension were grown in 96-well culture plate for 24 hr. Cells were treated with indicated doses of test analogues and incubated in CO2 incubator for 48 hr. Thereafter, cells were stained with sulforhodamine B dye, and the bound dye was eluted to measure the optical density indicating cell growth in Elisa Reader at 540 nm [Monks et al., 1991]. […]

Hep-2 cells = assay: In vitro cytotoxicity, SRB assay, Hep-2
Method: as §1, §2, §3, §4, §5, §6, §7

HT-29 colon cancer cells = assay: In vitro cytotoxicity, SRB assay, HT-29
Method: as §1, §2, §3, §4, §5, §6, §7

[2] = test system: SW-620 colon cancer cells; assay: In vitro cytotoxicity, SRB assay, SW-620
Method: as §1, §2, §3, §4, §5, §6, §7

PC-3 cells = assay: In vitro cytotoxicity, SRB assay, PC-3
Method: as §1, §2, §3, §4, §5, §6, §7

[3] = Conc. 5 × 10^5 (r27-r29: 5 × 10^−5), 48 hr, Table 1
[4] = Conc. 5 × 10^−5, 48 hr, natural boswellic acids

Compound | Growth inhibition % Colo-205 Colon [1, 3] | Growth inhibition % Hep-2 (Hep-2 cells; [3]) | Growth inhibition % HT-29 Colon (HT-29 colon cancer cells; [3]) | Growth inhibition % SW-620 Colon [2, 3] | Growth inhibition % PC-3 (PC-3 cells; [3]) | further results
CCCC(=O)OC1CCC2(C)C(CCC3(C)C2C(=O)C=C2C4C(C)C(C)CCC4(C)CCC23C)C1(C)C(=O)O (centres unmarked) | 94% | – | – | – | – | –
CCCCCC(=O)OC1CCC2(C)C(CCC3(C)C2C(=O)C=C2C4C(C)C(C)CCC4(C)CCC23C)C1(C)C(=O)O (centres unmarked) | 95% | 100% | 96% | 100% | 73% | –
CC1CCC2(C)CCC3(C)C(=CCC4C5(C)CCC(O)C(C)(C(=O)O)C5CCC43C)C2C1C (centres unmarked) [1, R3 = H, R1 = H, R4 = R5 = H] | 85% | 66% | 73% | 65% | 69% | –
CCCC(=O)OC1CCC2(C)C(CCC3(C)C2CC=C2C4C(C)C(C)CCC4(C)CCC23C)C1(C)C(=O)O (centres unmarked) [1, R3O = COCH2CH2CH3, R1 = H, R4 = R5 = H] | 91% | 99% | 98% | 101% | 75% | –
CCC(=O)OC1CCC2(C)C(CCC3(C)C2C(=O)C=C2C4C(C)C(C)CCC4(C)CCC23C)C1(C)C(=O)O (centres unmarked) [1, R3O = COCH2CH3, R1 = H, R4 + R5 = O] | 92% | 72% | 92% | 90% | 61% | –
CC(=O)OC1CCC2(C)C(CCC3(C)C2C(=O)C=C2C4C(C)C(C)CCC4(C)CCC23C)C1(C)C(=O)O (centres unmarked) [1, R3O = COCH3, R1 = H, R4 + R5 = O] | 56% | 50% | 45% | 48% | 60% | –
CC1CCC2(C)CCC3(C)C(=CC(=O)C4C5(C)CCC(OC=O)C(C)(C(=O)O)C5CCC43C)C2C1C (centres unmarked) [1, R3O = COH, R1 = H, R4 + R5 = O] | 76% | 56% | 62% | 70% | 99% | –
CC1CCC2(C)CCC3(C)C(=CCC4C5(C)CCC(OC=O)C(C)(C(=O)O)C5CCC43C)C2C1C (centres unmarked) [1, R3O = COH, R1 = H, R4 = R5 = H] | 93% | 75% | 79% | 92% | 99% | –
CCC(=O)OC1CCC2(C)C(CCC3(C)C2CC=C2C4C(C)C(C)CCC4(C)CCC23C)C1(C)C(=O)O (centres unmarked) [1, R3O = —COCH2CH3, R1 = H, R4 = R5 = H] | 86% | 86% | 94% | 94% | 98% | –
CC(=O)OC1CCC2(C)C(CCC3(C)C2CC=C2C4C(C)C(C)CCC4(C)CCC23C)C1(C)C(=O)O (centres unmarked) [1, R3O = —COCH3, R1 = H, R4 = R5 = H] | 34% | 41% | 34% | 38% | 54% | –
CCC(=O)OC1CCC2(C)C(CCC3(C)C2C(=O)C=C2C4C(C)C(C)CCC4(C)CCC23C)C1(C)C(=O)O (centres unmarked) [1, R = COCH2CH3, R1 = H, R4 + R5 = O] | 80% | 65% | 67% | 75% | 99% | –
CC1CCC2(C)CCC3(C)C(=CC(=O)C4C5(C)CCC(O)C(C)(C(=O)O)C5CCC43C)C2C1C (centres unmarked) [1, R = H, R1 = H, X = O] | 52% | 53% | 46% | 49% | 68% | –
CCCC(=O)OC1CCC2(C)C(CCC3(C)C2CC=C2C4C(C)C(C)CCC4(C)CCC23C)C1(C)C(=O)O (centres unmarked) [1,R3O = COCH2CH2CH3, R1 = H, R4 = R5 = H] | 71% | 65% | 54% | 83% | 80% | –
CC1CCC2(C)CCC3(C)C(=CC(=O)C4C5(C)CCC(OC(=O)CCC(=O)O)C(C)(C(=O)O)C5CCC43C)C2C1C (centres unmarked) [1,R3O = —COCH2CH2COOH R1 = H, R4 + R5 = O] | 29% | 17% | 16% | 2% | 60% | –
CC1CCC2(C)CCC3(C)C(=CC(=O)C4C5(C)CCC(OC(=O)CCC(=O)O)C(C)(C(=O)O)C5CCC43C)C2C1C (centres unmarked) [1,R3O = —COCH2CH2COOH, R1 = H, R4 + R5= O] | 1% | 7% | 3% | 0% | 38% | –
C[C@H]1[C@H](C)CC[C@]2(C)CC[C@]3(C)C(=CC(=O)[C@@H]4[C@@]5(C)CC[C@@H](O)[C@](C)(C(=O)O)[C@@H]5CC[C@]43C)[C@H]12 [11-keto-boswellic acid, reference compound] | – | – | – | – | – | Growth inhibition % Hep-2 (Hep-2 cells; [4]): 34%; Growth inhibition % HT-29 Colon (HT-29 colon cancer cells; [4]): 38%; Growth inhibition % SW-620 Colon [2, 4]: 28%; Growth inhibition % PC-3 (PC-3 cells; [4]): 100%; Growth inhibition % Colo-205 Colon [1, 4]: 50%
CC(=O)O[C@@H]1CC[C@@]2(C)[C@@H](CC[C@]3(C)[C@@H]2C(=O)C=C2[C@@H]4[C@@H](C)[C@H](C)CC[C@]4(C)CC[C@]23C)[C@@]1(C)C(=O)O [Acetyl-11-keto-boswellic acid, reference compound] | – | – | – | – | – | Growth inhibition % Hep-2 (Hep-2 cells; [4]): 62%; Growth inhibition % HT-29 Colon (HT-29 colon cancer cells; [4]): 91%; Growth inhibition % SW-620 Colon [2, 4]: 91%; Growth inhibition % PC-3 (PC-3 cells; [4]): 79%; Growth inhibition % Colo-205 Colon [1, 4]: 89%
C[C@H]1[C@H](C)CC[C@]2(C)CC[C@]3(C)C(=CC[C@@H]4[C@@]5(C)CC[C@@H](O)[C@](C)(C(=O)O)[C@@H]5CC[C@]43C)[C@H]12 [Boswellic acid] | – | – | – | – | – | Growth inhibition % Hep-2 (Hep-2 cells; [4]): 45%; Growth inhibition % HT-29 Colon (HT-29 colon cancer cells; [4]): 69%; Growth inhibition % SW-620 Colon [2, 4]: 61%; Growth inhibition % PC-3 (PC-3 cells; [4]): 100%; Growth inhibition % Colo-205 Colon [1, 4]: 86%
CO[C@@]12[C@H](COC(N)=O)C3=C(C(=O)C(C)=C(N)C3=O)N1C[C@@H]1N[C@@H]12 [Mitomycin C, reference compound] | – | – | – | – | – | Growth inhibition % Hep-2 (Hep-2 cells; Conc. 1 × 10^6, Table 2): 46%; Growth inhibition % Hep-2 (Hep-2 cells; Conc. 1 × 10^7, Table 2): 12%; Growth inhibition % HT-29 Colon (HT-29 colon cancer cells; Conc. 1 × 10^6, Table 2): 33%; Growth inhibition % HT-29 Colon (HT-29 colon cancer cells; Conc. 1 × 10^7, Table 2): 19%; Growth inhibition % SW-620 Colon ([2]; Conc. 1 × 10^6, Table 2): 57%; Growth inhibition % SW-620 Colon ([2]; Conc. 1 × 10^7, Table 2): 27%; Growth inhibition % PC-3 (PC-3 cells; Conc. 1 × 10^6, Table 2): 24%; Growth inhibition % PC-3 (PC-3 cells; Conc. 1 × 10^7, Table 2): 18%; Growth inhibition % Colo-205 Colon ([1]; Conc. 1 × 10^6, Table 2): 28%; Growth inhibition % Colo-205 Colon ([1]; Conc. 1 × 10^7, Table 2): 41%
Acetyl Boswellic acid [reference compound] | – | – | – | – | – | Growth inhibition % Hep-2 (Hep-2 cells; [4]): 88%; Growth inhibition % HT-29 Colon (HT-29 colon cancer cells; [4]): 96%; Growth inhibition % SW-620 Colon [2, 4]: 97%; Growth inhibition % PC-3 (PC-3 cells; [4]): 45%; Growth inhibition % Colo-205 Colon [1, 4]: 95%
